Read-outs that look alike come from different tables or passages of the source.
Legend:
[1] = biological target: T1, α-glucosidase (Saccharomyces cerevisiae, EC.3.2.1.20) (Saccharomyces cerevisiae, UniProt P53341); test: biochemical; format: biochemical; details: mean ± SD, at least three experiments, read-out: IC50 (µM), in vitro α-glucosidase inhibitory activity
T1 construct: purchased Sigma-Aldrich
Experimental: α-Glucosidase enzyme (EC3.2.1.20, Saccharomyces cerevisiae, 20 U/mg) and substrate (p-nitrophenyl glucopyranoside) were purchased from Sigma-Aldrich. […] Finally, the change in absorbance was measured at 405 nm by using spectrophotometer (Gen5, Power wave xs2, BioTek, America). DMSO (10% final concentration) and acarbose were used respectively as control and standard drug. The percentage of enzyme inhibitionwas calculated and IC50 values were obtained from non-linear regression curve using the Logit method.

T1 sequence (P53341 whole entry): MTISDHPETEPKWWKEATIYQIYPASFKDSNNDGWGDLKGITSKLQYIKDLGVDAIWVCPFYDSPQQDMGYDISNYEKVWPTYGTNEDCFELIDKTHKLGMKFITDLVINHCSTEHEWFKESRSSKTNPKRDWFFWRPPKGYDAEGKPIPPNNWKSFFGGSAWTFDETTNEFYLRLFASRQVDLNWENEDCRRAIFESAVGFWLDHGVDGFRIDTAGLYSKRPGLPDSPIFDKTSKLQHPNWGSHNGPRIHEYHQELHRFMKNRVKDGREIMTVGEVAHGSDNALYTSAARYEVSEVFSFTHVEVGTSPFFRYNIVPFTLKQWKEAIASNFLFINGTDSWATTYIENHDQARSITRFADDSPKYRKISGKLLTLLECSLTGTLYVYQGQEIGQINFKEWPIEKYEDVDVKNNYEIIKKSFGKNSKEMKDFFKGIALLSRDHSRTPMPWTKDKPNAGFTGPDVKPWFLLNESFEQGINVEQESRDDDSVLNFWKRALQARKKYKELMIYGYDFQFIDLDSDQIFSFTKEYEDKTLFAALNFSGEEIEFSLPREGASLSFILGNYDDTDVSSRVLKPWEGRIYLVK

Row | melting point [°C] | IC50 ([1]; Table 1, compounds 3a-z) [µM] | IC50 ([1]; Table 2, compounds 3aa-ai) [µM] | SMILES
1 | 248 to 249 | 37.8 ± 2.5 |  | Nc1c(-c2ccccc2)nc2c(C(=O)Nc3ccccc3)c(Nc3ccccc3)nn2c1-c1ccc(Cl)cc1 [3a, 6-Amino-7-(4-chlorophenyl)-N,5-diphenyl-2-(phenylamino)pyrazolo[1,5-a]pyrimidine-3-carboxamide]
2 | 180 to 182 |  | 94 ± 3.6 | CCOC(=O)c1c(-c2ccccc2)nn2c(-c3ccc(Cl)cc3)c(N)c(-c3ccccc3)nc12 [3aa, Ethyl 6-amino-7-(4-chlorophenyl)-2,5-diphenylpyrazolo[1,5-a]pyrimidine-3-carboxylate]
3 | 201 to 202 |  | 150 ± 4 | CCOC(=O)c1c(-c2ccccc2)nn2c(-c3ccc(Br)cc3)c(N)c(-c3ccccc3)nc12 [3ab, Ethyl 6-amino-7-(4-bromophenyl)-2,5-diphenylpyrazolo[1,5-a]pyrimidine-3-carboxylate]
4 | 221 to 223 |  | 185 ± 6 | CCOC(=O)c1c(-c2ccccc2)nn2c(-c3ccc(Cl)cc3)c(N)c(-c3ccc(C)cc3)nc12 [3ac, Ethyl 6-amino-7-(4-chlorophenyl)-2-phenyl-5-p-tolylpyrazolo[1,5-a]pyrimidine-3-carboxylate]
5 | 230 to 232 |  | 141 ± 7 | CCOC(=O)c1c(-c2ccccc2)nn2c(-c3ccc(Br)cc3)c(N)c(-c3ccc(C)cc3)nc12 [3ad, Ethyl 6-amino-7-(4-bromophenyl)-2-phenyl-5-p-tolylpyrazolo[1,5-a]pyrimidine-3-carboxylate]
6 | 189 to 190 |  | 116 ± 1.8 | CCOC(=O)c1c(-c2ccccc2)nn2c(-c3ccccc3)c(N)c(-c3ccc(OC)cc3)nc12 [3ae, Ethyl 6-amino-5-(4-methoxyphenyl)-2,7-diphenylpyrazolo[1,5-a]pyrimidine-3-carboxylate]
7 | 238 to 239 |  | 201 ± 4.2 | CCOC(=O)c1c(-c2ccccc2)nn2c(-c3ccccc3)c(N)c(-c3ccc(Cl)cc3)nc12 [3ag, Ethyl 6-amino-5-(4-chlorophenyl)-2,7-diphenylpyrazolo[1,5-a]pyrimidine-3-carboxylate]
8 | 245 to 246 |  | 162 ± 3.2 | CCOC(=O)c1c(-c2ccccc2)nn2c(-c3ccc(Cl)cc3)c(N)c(-c3ccc(Cl)cc3)nc12 [3ah, Ethyl 6-amino-5,7-bis(4-chlorophenyl)-2-phenylpyrazolo[1,5-a]pyrimidine-3-carboxylate]
9 | 192 to 193 |  | 153 ± 5 | CCOC(=O)c1c(-c2ccccc2)nn2c(-c3cccs3)c(N)c(-c3ccc(Cl)cc3)nc12 [3ai, Ethyl 6-amino-5-(4-chlorophenyl)-2-phenyl-7-(thiophen-2-yl)pyrazolo[1,5-a]pyrimidine-3-carboxylate]
10 | 235 to 237 | 40 ± 2.9 |  | Nc1c(-c2ccccc2)nc2c(C(=O)Nc3ccccc3)c(Nc3ccccc3)nn2c1-c1ccc(Br)cc1 [3b, 6-Amino-7-(4-bromophenyl)-N,5-diphenyl-2-(phenylamino)pyrazolo[1,5-a]pyrimidine-3-carboxamide]
11 | 232 to 233 | 44.5 ± 3.1 |  | Cc1ccc(-c2nc3c(C(=O)Nc4ccccc4)c(Nc4ccccc4)nn3c(-c3ccc(Cl)cc3)c2N)cc1 [3c, 6-Amino-7-(4-chlorophenyl)-N-phenyl-2-(phenylamino)-5-p-tolylpyrazolo[1,5-a]pyrimidine-3-carboxamide]
12 | 257 to 259 | 63.3 ± 4.4 |  | COc1ccc(-c2nc3c(C(=O)Nc4ccccc4)c(Nc4ccccc4)nn3c(-c3ccccc3)c2N)cc1 [3e, 6-Amino-5-(4-methoxyphenyl)-N,7-diphenyl-2-(phenylamino)pyrazolo[1,5-a]pyrimidine-3-carboxamide]
13 | 237 to 238 | 85.7 ± 5.3 |  | COc1ccc(-c2nc3c(C(=O)Nc4ccccc4)c(Nc4ccccc4)nn3c(-c3ccc(Cl)cc3)c2N)cc1 [3f, 6-Amino-7-(4-chlorophenyl)-5-(4-methoxyphenyl)-N-phenyl-2-(phenylamino)pyrazolo[1,5-a]pyrimidine-3-carboxamide]
14 | 285 to 286 | 75.6 ± 5 |  | Nc1c(-c2ccc(Cl)cc2)nc2c(C(=O)Nc3ccccc3)c(Nc3ccccc3)nn2c1-c1ccccc1 [3g, 6-Amino-5-(4-chlorophenyl)-N,7-diphenyl-2-(phenylamino)pyrazolo[1,5-a]pyrimidine-3-carboxamide]
15 | 281 to 283 | 25.7 ± 1.1 |  | Nc1c(-c2ccc(Cl)cc2)nc2c(C(=O)Nc3ccccc3)c(Nc3ccccc3)nn2c1-c1ccc(Cl)cc1 [3h, 6-Amino-5,7-bis(4-chlorophenyl)-N-phenyl-2-(phenylamino)pyrazolo[1,5-a]pyrimidine-3-carboxamide]
16 | 270 to 271 | 28.1 ± 1.2 |  | Nc1c(-c2ccc(Cl)cc2)nc2c(C(=O)Nc3ccccc3)c(Nc3ccccc3)nn2c1-c1cccs1 [3i, 6-Amino-5-(4-chlorophenyl)-N-phenyl-2-(phenylamino)-7-(thiophen-2-yl)pyrazolo[1,5-a]pyrimidine-3-carboxamide]
17 | 217 to 218 | 30.3 ± 2.1 |  | COc1ccc(NC(=O)c2c(Nc3ccccc3)nn3c(-c4ccc(Cl)cc4)c(N)c(-c4ccccc4)nc23)cc1 [3j, 6-Amino-7-(4-chlorophenyl)-N-(4-methoxyphenyl)-5-phenyl-2-(phenylamino)pyrazolo[1,5-a]pyrimidine-3-carboxamide]
18 | 256 to 258 | 57.4 ± 3.8 |  | COc1ccc(NC(=O)c2c(Nc3ccccc3)nn3c(-c4ccc(Br)cc4)c(N)c(-c4ccccc4)nc23)cc1 [3k, 6-Amino-7-(4-bromophenyl)-N-(4-methoxyphenyl)-5-phenyl-2-(phenylamino)pyrazolo[1,5-a]pyrimidine-3-carboxamide]
19 | 263 to 265 | 49.3 ± 3.3 |  | COc1ccc(NC(=O)c2c(Nc3ccccc3)nn3c(-c4ccc(Cl)cc4)c(N)c(-c4ccc(C)cc4)nc23)cc1 [3l, 6-Amino-7-(4-chlorophenyl)-N-(4-methoxyphenyl)-2-(phenylamino)-5-p-tolylpyrazolo[1,5-a]pyrimidine-3-carboxamide]
20 | 248 to 250 | 42.6 ± 1.1 |  | COc1ccc(NC(=O)c2c(Nc3ccccc3)nn3c(-c4ccccc4)c(N)c(-c4ccc(OC)cc4)nc23)cc1 [3n, 6-Amino-N,5-bis(4-methoxyphenyl)-7-phenyl-2-(phenylamino)pyrazolo[1,5-a]pyrimidine-3-carboxamide]
21 | 268 to 269 | 56.2 ± 3.2 |  | COc1ccc(NC(=O)c2c(Nc3ccccc3)nn3c(-c4ccc(Cl)cc4)c(N)c(-c4ccc(OC)cc4)nc23)cc1 [3o, 6-Amino-7-(4-chlorophenyl)-N,5-bis(4-methoxyphenyl)-2-(phenylamino)pyrazolo[1,5-a]pyrimidine-3-carboxamide]
22 | 245 to 246 | 33.2 ± 2.1 |  | COc1ccc(NC(=O)c2c(Nc3ccccc3)nn3c(-c4ccccc4)c(N)c(-c4ccc(Cl)cc4)nc23)cc1 [3p, 6-Amino-5-(4-chlorophenyl)-N-(4-methoxyphenyl)-7-phenyl-2-(phenylamino)pyrazolo[1,5-a]pyrimidine-3-carboxamide]
23 | 245 to 246 | 36.5 ± 2.5 |  | COc1ccc(NC(=O)c2c(Nc3ccccc3)nn3c(-c4ccc(Cl)cc4)c(N)c(-c4ccc(Cl)cc4)nc23)cc1 [3q, 6-Amino-5,7-bis(4-chlorophenyl)-N-(4-methoxyphenyl)-2-(phenylamino)pyrazolo[1,5-a]pyrimidine-3-carboxamide]

— PMC7018746, “An efficient and targeted synthetic approach towards new highly substituted 6-amino-pyrazolo[1,5-a]pyrimidines with α-glucosidase inhibitory activity” (Scientific Reports, 2020)
